Reference: patent US8765773B2, “Substituted hydroxamic acids and uses thereof” (Millennium Pharmaceuticals, Inc., priority 2010, dated 2014)

Molecular target: T1, purified human HDAC6 (Homo sapiens, UniProt Q9UBN7)
T1 construct: purchased BPS Bioscience 5006
T1 sequence (Q9UBN7 1-1215): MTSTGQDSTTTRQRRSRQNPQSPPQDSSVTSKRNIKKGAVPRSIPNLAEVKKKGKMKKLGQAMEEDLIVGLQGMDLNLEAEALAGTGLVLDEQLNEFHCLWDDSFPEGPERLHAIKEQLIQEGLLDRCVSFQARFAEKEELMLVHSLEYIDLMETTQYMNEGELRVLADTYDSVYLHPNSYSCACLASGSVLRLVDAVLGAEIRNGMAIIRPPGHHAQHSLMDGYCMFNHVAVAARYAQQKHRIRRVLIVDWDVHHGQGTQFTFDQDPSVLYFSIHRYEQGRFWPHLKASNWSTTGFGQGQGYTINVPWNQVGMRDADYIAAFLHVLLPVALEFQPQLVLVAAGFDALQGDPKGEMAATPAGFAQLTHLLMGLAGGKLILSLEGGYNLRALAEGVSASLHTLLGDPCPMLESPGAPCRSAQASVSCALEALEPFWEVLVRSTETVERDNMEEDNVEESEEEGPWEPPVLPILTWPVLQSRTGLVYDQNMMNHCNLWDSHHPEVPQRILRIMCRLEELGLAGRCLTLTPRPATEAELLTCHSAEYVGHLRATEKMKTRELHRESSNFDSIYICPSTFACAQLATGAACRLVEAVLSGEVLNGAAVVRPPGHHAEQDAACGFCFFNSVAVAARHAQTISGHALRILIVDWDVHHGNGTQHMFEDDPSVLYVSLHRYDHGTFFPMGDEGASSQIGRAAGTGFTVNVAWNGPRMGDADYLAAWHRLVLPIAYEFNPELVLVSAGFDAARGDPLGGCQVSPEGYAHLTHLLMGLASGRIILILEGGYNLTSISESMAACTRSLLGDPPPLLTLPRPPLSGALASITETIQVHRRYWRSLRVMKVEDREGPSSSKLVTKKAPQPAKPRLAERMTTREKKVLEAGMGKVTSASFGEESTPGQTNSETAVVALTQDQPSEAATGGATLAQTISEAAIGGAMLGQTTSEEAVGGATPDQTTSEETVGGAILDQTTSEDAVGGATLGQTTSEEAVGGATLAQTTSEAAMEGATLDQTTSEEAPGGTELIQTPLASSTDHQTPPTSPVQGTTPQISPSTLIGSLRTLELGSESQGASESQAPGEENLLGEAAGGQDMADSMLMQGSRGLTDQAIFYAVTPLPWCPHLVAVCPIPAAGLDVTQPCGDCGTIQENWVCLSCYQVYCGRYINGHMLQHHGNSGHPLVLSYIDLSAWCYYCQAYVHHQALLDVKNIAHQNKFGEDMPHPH
Assay: HDAC6 Enzyme Assay
Assay type: biochemical
Settings: read-out: Percent Inhibition; for inhibition at 0.412 µM: compound concentration 0.412 μM
Method in brief: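 Readout is AMC fluorescence (Ex 340 nm, Em 460 nm) after trypsin cleavage of the deacetylated Ac-Arg-Gly-Lys(Ac)-AMC product. Reaction: purified human HDAC6, compound or vehicle, 1 hour, 30° C, quenched by trichostatin A. Single-concentration percent inhibition or IC50 calculated versus DMSO-treated samples.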

Row | inhibition at 0.37 µM (compound concentration 0.37 μM) [%] | inhibition at 0.412 µM [%] | SMILES
1 | 94 | – | O=C(NO)c1ccc2ncn(Cc3cccc(-c4ccc(S(=O)(=O)N5CCCCC5)cc4)c3)c(=O)c2c1 [Compound I-254, N-hydroxy-4-oxo-3-{[4′-(piperidin-1-ylsulfonyl)biphenyl-3-yl]methyl}-3,4-dihydroquinazoline-6-carboxamide]
2 | – | 36.1 | O=C(NO)c1ccc2c(=O)n(Cc3ccccc3)c(=O)[nH]c2c1 [Compound I-194, 3-benzyl-N-hydroxy-2,4-dioxo-1,2,3,4-tetrahydroquinazoline-7-carboxamide]
3 | – | 74.2 | O=C(NO)c1ccc2c(=O)n(-c3ccccc3)c(NCc3ccc(Cl)cc3)nc2c1 [Compound I-86, 2-[(4-chlorobenzyl)amino]-N-hydroxy-4-oxo-3-phenyl-3,4-dihydroquinazoline-7-carboxamide]
4 | – | 94.4 | COc1ccc(N(CCCn2ccc3ccc(C(=O)NO)cc3c2=O)C(=O)OC(C)(C)C)cc1 [Compound I-188, tert-butyl {3-[7-[(hydroxyamino)carbonyl]-1-oxoisoquinolin-2(1H)-yl]propyl}(4-methoxyphenyl)carbamate]
